From paper PMC5555576, “Selective small-chemical inhibitors of protein arginine methyltransferase 5 with anti-lung cancer activity” (PLoS ONE, 2017)
Values joined by “and” are separate entries in the source; they are usually repeats but may differ in a detail not shown here. Equal values may be shown once. Read-outs that look alike come from different tables or passages of the source. Each block holds one compound with its values, some of them ahead of it.

Tests used:
PRMT5 [1] = details: cited from earlier work; for selectivity for PRMT5: versus PRMT1, CARM1, or PRMT7
PRMT5 [2] = target: T1, PRMT5 (Homo sapiens, UniProt O14744); test: Radioactive methyltransferase assay, PRMT5; type: biochemical; details: methylation of SmD3 by PRMT5; Table 1 prints no unit, μM; read-out: IC50
T1 construct: His6; made in house; host or cells: E. coli BL21(ED3) [sic]
T1 sequence (O14744 whole entry): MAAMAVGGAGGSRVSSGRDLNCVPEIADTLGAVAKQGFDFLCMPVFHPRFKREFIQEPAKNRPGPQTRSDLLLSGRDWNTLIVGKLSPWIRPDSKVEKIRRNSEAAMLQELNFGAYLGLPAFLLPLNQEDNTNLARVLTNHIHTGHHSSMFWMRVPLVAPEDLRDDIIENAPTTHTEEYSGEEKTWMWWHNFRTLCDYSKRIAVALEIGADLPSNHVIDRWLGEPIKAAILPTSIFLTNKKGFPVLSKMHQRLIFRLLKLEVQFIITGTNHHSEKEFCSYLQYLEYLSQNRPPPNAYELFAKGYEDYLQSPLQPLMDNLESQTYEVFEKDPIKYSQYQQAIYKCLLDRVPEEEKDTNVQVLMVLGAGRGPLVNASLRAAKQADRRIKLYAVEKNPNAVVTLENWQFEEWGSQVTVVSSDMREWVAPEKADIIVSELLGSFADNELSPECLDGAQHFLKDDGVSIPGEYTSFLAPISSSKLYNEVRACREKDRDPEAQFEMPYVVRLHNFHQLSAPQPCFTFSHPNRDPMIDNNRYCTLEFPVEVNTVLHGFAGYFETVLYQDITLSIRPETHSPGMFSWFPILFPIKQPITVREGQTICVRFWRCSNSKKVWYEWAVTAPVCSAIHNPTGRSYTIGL
Description: (§1) Methylation reactions were performed as previously described with a few modifications. Reaction mixtures (40 μl) containing 1.2 μg of PRMT5, 98 ng of PRMT1 or 98 ng of PRMT3; 2 μg of SmD3 or histones; 1 μCi of S-[methyl-^3H]adenosylmethionine (H^3-AdoMet; PerkinElmer); and 5 μM AdoMet were incubated in 50 mM Tris-HCl (pH 7.5)–1 mM EGTA–1 mM EDTA at 30°C for 2 h. Reaction mixtures (20 μl) were boiled in 5 μl of 5x SDS sample buffer and separated on a 15% polyacrylamide gel. Gels were fixed for 30 min in 40% methanol–10% acetic acid, incubated in 20 ml of Amplify (Amersham Life Science) for 10 min, dried and exposed to X-ray film at -80°C. IC50 was calculated by linear regression analysis of percent inhibition. The other half (20 μl) of each reaction mixture was spread onto DE81 chromatography paper discs (Whatman). The paper discs were washed 4 times with 50 mM NaHCO3 and dried. The amounts of methylated products were quantified by liquid scintillation.
In vitro methylation reactions were performed with recombinant PRMT5 (1.2 μg), PRMT1 ([…]) or PRMT3 (89 ng); [H^3]-AdoMet; and different substrates in the presence of identified compounds. […] The recombinant SmD3 (2 μg) was used as the substrate in the absence (lane 2) or presence of 1, 10 or 100 μM compounds as indicated. Reaction mixtures were separated on an SDS–15% polyacrylamide gel and the gel was dried under vacuum and exposed to film. […] Recombinant histones H4 or H2A (1 μg) were used as substrates of PRMT5 in the methylation assay in the absence or presence of 100 μM compounds as indicated. Reaction mixtures were spread onto DE81 chromatography paper discs. After a wash, the amounts of methylated products on discs were quantified by liquid scintillation. […] PRMT1 was incubated with purified histones (1 μg) or recombinant E2F1 (1 μg) as substrates in the absence (lane 2) or presence of 100 μM compounds as indicated. Reaction mixtures were separated on an SDS–15% polyacrylamide gel and the gel was dried and exposed to film.

PRMT5 F225M [3] = target: T2, PRMT5 F225M (Homo sapiens, UniProt O14744, F327M); test: Radioactive methyltransferase assay, mutant PRMT5; type: biochemical; details: F225M mutant PRMT5, SmD3 substrate, Fig 4D
T2 construct: His6; made in house; host or cells: bacteria (E. coli BL21(ED3) for the wild type)
T2 sequence (O14744 whole entry F327M): as the sequence (O14744 whole entry) above, with F327M counted along it
Description: as §1
(§2) The inhibitory activity of the compounds may stem from this interaction. To test this possibility, we conducted site-directed mutagenesis to mutate Phe225 in human PRMT5 (corresponding to Phe379 in the C. elegans PRMT5) to Met. The mutated PRMT5 was expressed in bacteria and purified by Ni-nitrilotriacetic acid (Ni-NTA) affinity chromatography (Fig 4A). The activity of the mutant PRMT5 was examined by the radioactive methyltransferase assay. […] The IC50 values for the mutant PRMT5 increased from 4.3 to 183 folds higher than those for the wild type PRMT5 (Fig 4D). […] The results also can help explain the specificity of the compounds to PRMT5. However, the contribution of this interaction to inhibition varies among the compounds. For example, compound C2 interacts with three amino acid residues (Lys451, Glu450, and Phe379) (Fig 3A) with the mutation of Phe to Met resulting in a 50-times higher IC50 (Fig 4C and 4D).
(§3) Fig 4 The conserved phenylalanine residue in PRMT5 is critical for inhibition by the five compounds. A, DS-PAGE of recombinant wild type (WT) and F225M mutant (MT) PRMT5. The gel was stained with Coomassie Brilliant Blue R250. A band corresponding to an unknown bacterial protein is indicated (star). B, The F225M mutation increased the methytransferase activity of PRMT5. In vitro methylation reactions were performed with recombinant wild type (lanes 2–4) or mutant (lanes 5–7) PRMT5 (1.2, 2.4 or 4.8 μg) and SmD3 (2 μg) as the substrate. C, The F225M mutation in PRMT5 decreased inhibition of arginine methylation by the compounds. The reaction mixture contained SmD3 (2 μg); wild type or mutant PRMT5 (1.2 μg); and 1, 10 or 100 μM compounds as indicated. D, The F225M mutation in PRMT5 […] of the compounds, as determined by quantitation and analysis of methylation assay results. TEXT PRINTED IN THE PICTURE: (D) C2: IC50 (μM) PRMT5: 0.1; IC50 (μM) PRMT5 F225M: 5.0 | (D) C5: IC50 (μM) PRMT5: 0.8; IC50 (μM) PRMT5 F225M: 3.5 | (D) C6: IC50 (μM) PRMT5: 0.5; IC50 (μM) PRMT5 F225M: 7.0 | (D) C9: IC50 (μM) PRMT5: 6.0; IC50 (μM) PRMT5 F225M: 45.0 | (D) C11: IC50 (μM) PRMT5: 0.3; IC50 (μM) PRMT5 F225M: 55.0

PRMT5 F225M [4] = test: Radioactive methyltransferase assay, mutant PRMT5; type: biochemical, human; details: Phe225 to Met
Description: as §1, §2, §3

PRMT5 [5] = target: T1, PRMT5; test: Steady-state kinetic analysis of PRMT5 inhibition (time-dependent inhibition assay); type: biochemical
Description: Different amounts of compound C2 or C5 were present in the final methylation reaction mixtures with 1.2 μg of PRMT5, 5 μM AdoMet, 2 μCi of H^3-AdoMet and various concentrations of SmD3. After a 10-, 20- or 30-min incubation at 30 °C or no incubation, the reaction mixtures were spread onto DE81 chromatography paper discs and the amounts of methylated products were quantified by liquid scintillation. Amounts (counts per minute [cpm]) of methylated products and incubation time (minutes) were plotted and reaction velocity (cpm per minute) was deduced.
To understand the mechanism of inhibition of identified compounds, we analyzed the kinetic pattern of inhibition using steady-state enzymatic measurements. The velocities of PRMT5 methylation of SmD3 were measured at several selected concentrations of compounds C2 and C5 over a range of SmD3 concentrations. Plotted in the double-reciprocal format with 1/velocity versus 1/[SmD3]
Fig 5 Steady-state kinetic analysis of PRMT5 inhibition by compounds C2 and C5. Double-reciprocal plot of reaction velocities (cpm per minute) versus concentrations of SmD3. Methylation reaction mixtures contained various concentrations of C2 (left) or C5 (right), various concentrations of SmD3, 1.2 μg of PRMT5 and 5 μM AdoMet. The mixtures were incubated for different times and the amounts of methylated products were quantified using DE81 paper and liquid scintillation. Reaction velocity was calculated as H^3 incorporation (cpm) into SmD3 per minute.

A549 cells = test: Cellular permeability and stability by HPLC of cell extracts; type: in vitro ADME; details: 2 hr in medium with compound
Description: Waters 2695 HPLC System and a C18 column (Symmetry, 3.6 x 75 mm) were used. The column was equilibrated with 10% acetonitrile and eluated with a linear gradient from 10% acetonitrile to 100% acetonitrile in 60 min. Compounds were dissolved in 10% acetonitrile and the purchased compounds (ChemBridge) were used as the standards.
We then determined whether the identified compounds are cell-permeable. Lung cancer A549 cells were cultured in medium containing various concentrations of the respective compound for 2 hr. Cells were harvested and washed with PBS. The compounds were extracted with ethyl acetate from cells and analyzed by HPLC with a C18 column using the purchased compound as the standard. Compounds C2, C5, C9 and C11 are cell-permeable (Fig 6A), which is consistent with their tPSAs <140 angstroms square (Table 1). […] We even noticed that the compound C5 crystalized inside the cells.
A, The cellular permeability of identified compounds. Lung cancer A549 cells were cultured in the presence of various concentrations of compounds for 2h and the compound concentrations in the cell were determined by HPLC chromatography with a C18 column. B, The cellular stability of identified compounds. Lung cancer A549 cells were cultured in the presence of compounds (20 μM) for 2 h and then the medium was removed. Cells were washed with the medium and cultured for additional 5 or 10 h after the compounds were removed. The compound concentrations in the cell were determined by HPLC chromatography with a C18 column. […] A549 cells were grown in the presence of DMSO or compound C5, C9 or C11 (20 μM). Histones were purified and analyzed by SDS-PAGE stained with Commassie blue (lanes 1–4, bottom) or by Western blot with anti-symmetric dimethyl arginine antibody (SYM10) (lanes 1–4, top). B-Raf was immunoprecipitated with anti-B-Raf antibody from whole cell lysates and submitted for Western blot analysis with anti-B-Raf (lanes 5 and 6, bottom) or anti-symmetric dimethyl arginine (lanes 5 and 6, top) antibody.

[6] = system: PRMT5-target genes in A549 cells; test: Real-time PCR of PRMT5-regulated genes; type: cell-based; details: 50 μM, 24 hrs
Description: We identified a set of genes whose expression was altered by silencing PRMT5 expression in lung cancer A549 cells. A549 cells were treated with C9a and EPZ015666 and expression of 6 identified PRMT5-regulated genes was analyzed. […] The future study would use genome-wide approach to determine genes whose expression is affected by PRMT5 inhibitors.
Supplementary file pone.0181601.s005.tif: S5 Fig PRMT5 inhibitors selectively affect PRMT5-target genes in lung cancer cells. RNAs were isolated from cells cultured in the presence of DMSO, EPZ015666 (Sigma-Aldrich) (50 μM), or C9a (50 μM) for 24 hrs and submitted to RT-RCR analysis of gene expression in cancer cell lines. Relative mRNA levels = mRNA in cells treated with PRMT5-inhibtor/mRNA in DMSo-treated cells. (TIF) Click here for additional data file.

MCL xenograft models = system: MCL xenograft models; set-up: method as in PMID 25915199; details: cited from earlier work
[7] = system: CDK4/6 (Rb pS811) in A549 cells; test: Western blot of Rb phosphorylation at S811; type: cell-based; details: 20 μM, 4 h
From the text: The retinoblastoma protein (Rb) is phosphorylated by CKDs in cells.
(TIF) Click here for additional data file.

[8] = single replicate, vs control, actin-normalised, listed as EPZ

Structure (SMILES): CCn1c2ccccc2c2cc(CNCc3ccccn3)ccc21 [CMP5]
selectivity for PRMT5 (PRMT5 [1]): specifically inhibited PRMT5 rather than PRMT1, CARM1, or PRMT7

Structure (SMILES): CCNC(=O)NCCSC[C@H]1O[C@@H](n2cnc3c(N)ncnc32)[C@H](O)[C@@H]1O [DS-437]
IC50 (PRMT5 [1]; AdoMet competitor, cofactor-binding site): 6 µM

Structure (SMILES): O=C(NC[C@H](O)CN1CCc2ccccc2C1)c1cc(NC2COC2)ncn1 [EPZ015666, reference compound]
antitumor activity (MCL xenograft models): demonstrated antitumor activity in multiple MCL xenograft models

Structure (SMILES): CCn1c2ccccc2c2cc(CNCc3ccccc3OC)ccc21.Cl [HLCL-61]
selectivity for PRMT5 (PRMT5 [1]): specifically inhibited PRMT5 rather than PRMT1, CARM1, or PRMT7

Structure (SMILES): CC(=O)c1c(C)c2cnc(Nc3ccc(N4CCNCC4)cn3)nc2n(C2CCCC2)c1=O [Palbociclib, reference compound]
Rb phosphorylation at the site S811 by CDK4/6 [7]: inhibited

Continued, values first:

IC50 (PRMT5 [2]): 0.5 µM
Structure (SMILES): COc1nc(Nc2ccc(-c3nc4ccccc4o3)cc2)nc(OC)n1 [Compound C1]

IC50 (PRMT5 [2]): 0.1 µM
IC50 (PRMT5 F225M [3]): 5 µM
increase of IC50 for mutant PRMT5 over wild type PRMT5 (PRMT5 F225M [4]): 50 fold
mode of inhibition with regard to SAM (PRMT5 [5]): not competitive inhibitors
mode of inhibition with regard to the SmD3 substrate (PRMT5 [5]; double-reciprocal plot): competitive inhibitors
cell permeability (A549 cells): cell-permeable
Structure (SMILES): Cc1ccnc(NC(=O)c2ccc(COc3ccc(Cl)cc3)o2)c1 [Compound C2]

IC50 (PRMT5 [2]): 0.6 µM
Structure (SMILES): Nc1c(C(=O)Nc2ccccc2)sc2nc3c(cc12)CCC3 [Compound C4]

IC50 (PRMT5 [2]): 0.5 µM
IC50 (PRMT5 F225M [3]): 7 µM
cell permeability (A549 cells): not cell-permeable
Structure (SMILES): CCc1ccc(-c2cn3c4ccccc4nc3n2CCN2CCOCC2)cc1 [Compound C6]

IC50 (PRMT5 [2]): 2.5 µM
Structure (SMILES): O=C(Nc1nccs1)c1ccc(COc2ccc(F)cc2)o1 [Compound C7]
